Tests used:
[1] = test system: HCT116 tumours established from transfected HCT116 cells; assay: Anti-tumour activity in HCT116 tumours from transfected cells; type: in vivo, athymic nude mice; details: PGP i.p., 3 doses at hourly intervals, 5-25 mg kg^-1, vs PBS
Procedure: (§1) HCT116 tumour cells transfected with the antibody-CPG2 fusion protein gene or control non-transfected HCT116 tumour cells are injected subcutaneously into athymic nude mice (10^7 tumour cells per mouse). When the turnours are 5-7 mm in diameter the PGP prodrug is administered i.p. to the mice (3 doses at hourly intervals over 2 h in dose ranges of 5-25 mg kg^−1). The anti-tumour effects are judged by measuring the length of the tumours in two directions and calculating the tumour volume using the formula: […]
(§2) where D is the larger diameter and d is the smaller diameter of the tumour.
(§3) Tumour volume is expressed relative to the tumour volume at the time the PGP prodrug is administered. The anti-tumour activity is compared to a control group receiving either transfected or non-transfected tumour cells and PBS ([…], 3.4 mM KCl, 12 mM Na2HPO4 and 1.8 mM KH2PO4, pH 7.2) instead of the PGP prodrug.

[2] = test system: HCT116 cells transfected with the antibody-CPG2 fusion protein gene; type: cell-based
[3] = test system: established LoVo tumours produced from non-transfected parental LoVo cells; assay: Anti-tumour activity, fusion gene vector injected intra-tumourally into established LoVo tumours, then PGP; type: in vivo, athymic nude mice; details: PGP after 1-3 days, vs controls
Procedure: (§4) Thus non-transfected LoVo cells are injected into athymic nude mice (1×10^7 tumour cells per mouse) and once the tumours are 5-7 mm in diameter the vector containing the antibody-enzyme fusion protein gene is injected intra-tumourally. After 1-3 days to allow the antibody-enzyme fusion protein to be expressed by, and bind to, the LoVo tumour cells, the PGP prodrug is administered as described above.

[4] = test system: HCT116 tumours established from non-transfected cells; assay: Anti-tumour activity in HCT116 tumours from non-transfected cells; type: in vivo, athymic nude mice; details: PGP i.p., 3 doses at hourly intervals, 5-25 mg kg^-1
Procedure: as §1, §2, §3

[5] = test system: LoVo tumours established from non-transfected cells; assay: Anti-tumour activity in LoVo tumours from non-transfected cells; type: in vivo, athymic nude mice; details: PGP i.p., 3 doses at hourly intervals, 40-80 mg kg^-1
Procedure: (§5) Recombinant LoVo (A5B7-CPG2)2 fusion protein expressing tumour cells or mixes of recombinant and parental LoVo cells were injected subcutaneously into athymic nude mice as described in Example 9.
(§6) When the tumours are 5-7 mm in diameter the PGP prodrug is administered i.p. to the mice (3 doses in DMSO/0.15 M sodium bicarbonate buffer at hourly intervals over 2 h in dose ranges of 40-80 mg kg^−1).
(§7) Anti-tumour effects are judged by measuring the length of the tumours in two directions and calculating the tumour volume using the formula
(§8) where D is the larger diameter and d is the smaller diameter of the tumour. Tumour volume may be expressed relative to the tumour volume at the time the PGP prodrug is administered or alternatively the median tumouT volumes may be calculated. The anti-tumour activity is compared to control groups receiving either transfected or non-transfected tumour cells and buffer without PGP prodrug.

[6] = test system: established HCT116 tumours produced from non-transfected HCT116 cells; assay: Anti-tumour activity, fusion gene vector injected intra-tumourally into established HCT116 tumours, then PGP; type: in vivo, athymic nude mice; details: PGP after 1-3 days, vs PBS
Procedure: as §4, with “HCT116” for “LoVo”, “by” for “by,”, “to” for “to,”

[7] = test system: non-transfected LoVo cells; assay: In vitro prodrug killing, non-transfected LoVo cells; type: cell-based
[8] = test system: non-transfected HCT116 cells; type: cell-based; details: read-out: IC50 (concentration required to inhibit cell growth by 50%)
[9] = test system: LoVo cells transfected with an antibody-CPG2 fusion protein gene; assay: In vitro prodrug killing, LoVo cells transfected with antibody-CPG2 fusion protein gene; type: cell-based
[10] = test system: LoVo tumours established from recombinant LoVo cells or recombinant Lovo/Parental LoVo cell mixes; assay: Anti-tumour activity in LoVo tumours expressing the antibody-CPG2 fusion protein; type: in vivo, athymic nude mice
Procedure: as §5, §6, §7, §8

[11] = target: T1, CEA on LoVo colorectal tumour cells (CEA positive) (human, UniProt P06731 35-685, GPI anchor on the C-terminal residue; heavily N-glycosylated on cells); assay: cell based ELISA on fixed cells, anti-human kappa HRP detection, OD 490 nm
T1 construct: also called CEA positive LoVo cells; LoVo, CEA bearing, tumour cells
T1 sequence: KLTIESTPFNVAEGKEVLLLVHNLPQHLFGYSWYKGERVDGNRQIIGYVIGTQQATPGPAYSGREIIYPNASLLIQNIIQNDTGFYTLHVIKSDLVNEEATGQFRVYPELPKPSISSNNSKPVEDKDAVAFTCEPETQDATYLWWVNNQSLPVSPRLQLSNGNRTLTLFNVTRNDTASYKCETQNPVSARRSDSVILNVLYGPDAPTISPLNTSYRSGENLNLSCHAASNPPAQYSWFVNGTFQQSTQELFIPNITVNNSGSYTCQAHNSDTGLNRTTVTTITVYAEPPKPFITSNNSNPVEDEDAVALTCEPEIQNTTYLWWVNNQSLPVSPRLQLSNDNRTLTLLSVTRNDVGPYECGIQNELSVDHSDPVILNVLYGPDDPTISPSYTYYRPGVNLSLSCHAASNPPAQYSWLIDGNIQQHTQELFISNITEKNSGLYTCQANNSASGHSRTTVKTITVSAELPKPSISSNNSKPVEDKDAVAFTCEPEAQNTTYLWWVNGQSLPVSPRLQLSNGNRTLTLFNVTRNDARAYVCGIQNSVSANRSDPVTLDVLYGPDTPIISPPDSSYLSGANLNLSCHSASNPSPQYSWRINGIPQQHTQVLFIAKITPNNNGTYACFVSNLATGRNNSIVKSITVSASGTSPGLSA
Procedure: 100 µl of 6% formaldehyde was diluted in DMEM and left for 1 hour at 4°. Plates were centrifuged and washed 3 times in PBS containing 0.05% Tween™ by immersion soaking (first two washes for 2 minutes and the final wash for 5 minutes).
Colour was allowed to develop for about 5 min, stopped with 75 μl per well of 2M H_2SO_4 and OD read at 490 nm.

[12] = target: T2, human carcinoembryonic antigen (CEA) (human, UniProt P06731 35-685, limits assumed); assay: CEA ELISA, COS-7 supernatant, anti-human kappa or anti-CPG2 reporter antibody
T2 construct: CEA as coated on the ELISA plate; also called Carcinoma Embryonic Antigen
T2 sequence (looked up): T1 sequence
Procedure: For the CEA ELISA each well of a 96 well immunoplate (NUNC MAXISORB™) was coated with 50 ng CEA in 50 mM carbonate/bicarbonate coating buffer pH9.6 (buffer capsules—Sigma C3041) and incubated at 4° overnight. The plate was washed three times with PBS-TWEEN™ (PBS+ 0.05% TWEEN™ 20) and then blocked 150 μl per well of 1% BSA in PBS-TWEEN™ for 1 hour at room temperature. The plate was washed three times with PBS-TWEEN™, 100 μl of test sample added per well and incubated at room temperature for 2 hours. […] The plate was washed three times with PBS-TWEEN™ and then once more with PBS. To detect binding, add 100 μl per well of developing solution (one capsule of phosphate-citrate buffer—Sigma P4922—dissolved in 100 ml H_2O to which is added one 30 mg tablet o-phenylenediamine dihydrochloride—Sigma P8412) and incubated for up to 15 minutes. The reaction was stopped by adding 75 μl 2M H_2SO_4, and absorbance read at 490 nm.
The CEA ELISA using an anti CPG2 reporter antibody was essentially as above but instead of HRPO-labelled goat anti-human kappa antibody an 1/1000 dil. of a rabbit anti-CPG2 polyclonal sera was added, in 1% BSA in PBS-TWEEN™ and incubated at room temperature on a rocking platform for at 2 hours. The plate was washed three times with PBS-TWEEN™. […] The reaction was stopped by adding 75 μl 2M H_2SO_4, and absorbance read at 490 nm.

O=C(O)CC[C@H](NC(=O)Oc1ccc(N(CCCl)CCCl)cc1)C(=O)O [PGP, N-(4-[N,N-bis(2-chloroethyl)amino]-phenoxycarbonyl)-L-glutamic acid] was tested, and the anti-tumour effect [1] was “significant anti-tumour effect”, the “sensitivity of transfected compared to non-transfected HCT116 cells in terms of cell killing” value [2] was “over 100 fold” and the IC50 ([2]; read-out: IC50 (concentration required to inhibit cell growth by 50%)) was about 1 µM. For the same molecule, the anti-tumour activity [3] was “significant anti-tumour activity”, the anti-tumour activity [4] was “no significant anti-tumour activity” and the anti-tumour activity [5] was “no significant anti-tumour activity”. The anti-tumour activity [6] was “significant anti-tumour activity”, the “conversion of prodrug into active drug by cells” value [7] was “unable to convert the prodrug” and the IC50 [8] was about 200 µM. The “conversion of prodrug into active drug by cells” value ([9]; transfected LoVo cells) was “can convert the PGP prodrug into the more potent active drug”, the “sensitivity of transfected compared to non-transfected LoVo cells in terms of cell killing” value ([9]; transfected vs non-transfected LoVo) was “over 100 fold” and the tumour growth delay ([10]; 60 mg/kg doses of prodrug, FIG. 5) was at least 11 days. The “median tumour volume relative to initial size” value ([10]; 60 mg/kg doses of prodrug, day 16 post-dose, FIG. 5) was 3 times their initial size and the anti-tumour effect ([10]; PGP i.p., 3 doses at hourly intervals, 40-80 mg kg^-1, vs controls) was “significant anti-tumour effect”.

B1: (A5B7 Fab-CPG2)2 fusion protein (other)
heavy: EVKLVESGGGLVQPGGSLRLSCATSGFTFTDYYMNWVRQPPGKALEWLGFIGNKANGYTTEYSASVKGRFTISRDKSQSILYLQMNTLRAEDSATYYCTRDRGLRFYFDYWGQGTTLTVSSASTKGPSVFPLAPCSRSTSESTAALGCLVKDYFPEPVTVSWNSGALTSGVHTFPAVLQSSGLYSLSSVVTVPSSNFGTQTYTCNVDHKPSNTKVDKTVGGGGSGGGGSGGGGSQKRDNVLFQAATDEQPAVIKTLEKLVNIETGTGDAEGIAAAGNFLEAELKNLGFTVTRSKSAGLVVGDNIVGKIKGRGGKNLLLMSHMDTVYLKGILAKAPFRVEGDKAYGPGIADDKGGNAVILHTLKLLKEYGVRDYGTITVLFNTDEEKGSFGSRDLIQEEAKLADYVLSFEPTSAGDEKLSLGTSGIAYVQVQITGKASHAGAAPELGVNALVEASDLVLRTMNIDDKAKNLRFQWTIAKAGQVSNIIPASATLNADVRYARNEDFDAAMKTLEERAQQKKLPEADVKVIVTRGRPAFNAGEGGKKLVDKAVAYYKEAGGTLGVEERTGGGTDAAYAALSGKPVIESLGLPGFGYHSDKAEYVDISAIPRRLYMAARLIMDLGAGK
light: QTVLSQSPAILSASPGEKVTMTCRASSSVTYIHWYQQKPGSSPKSWIYATSNLASGVPARFSGSGSGTSYSLTISRVEAEDAATYYCQHWSSKPPTFGGGTKLEIKRTVAAPSVFIFPPSDEQLKSGTASVVCLLNNFYPREAKVQWKVDNALQSGNSQESVTEQDSKDSTYSLSSTLTLSKADYEKHKVYACEVTHQGLSSPVTKSFNRGEC
notes: Two Fab-CPG2 units dimerise non-covalently through CPG2 (about 180 kDa); Tested as cell culture supernatant (COS-7 or recombinant Colo320DM / LoVo cells); also called (A5B7-CPG2 R6)2 fusion protein; (A5B7-CPG2)2 fusion protein
B1: binds [11]; binds [12].

Reference: patent US6339070B1, “Gene construct encoding a heterologous prodrug-activating enzyme and a cell targeting moiety” (Zeneca Limited, priority 1997, dated 2002)
